Data on 17 molecules can be found in patent EP0309765A2, “1(2H)-Phthalazinones as cytoprotective agents” (FISONS CORPORATION, priority 1987, dated 1989).

Structures can show the parent of a compound that is named as a salt.

The test system of one assay is Indomethacin-induced Gastric Lesions. Description: Reversal of indomethacin-induced gastric lesions (number of macroscopically visible hemorrhagic lesions in the glandular stomach). It is filed as in vivo, Male, Sprague-Dawley rats. As to conditions: Rattus norvegicus, ip, 6 h; test compound 50 mg/kg intraperitoneal, 1 hour before 25 mg/kg oral indomethacin; lesions counted six hours after indomethacin; versus saline control group; read-out: Percent Inhibition. How it is done: The methodology for determining the degree of inhibition of gastric lesion formation by the compounds of formula 1 is described below and the results, expressed as percent inhibition, are given in Table 1. Reversal of Indomethacin-induced Gastric Lesions Male, Sprague-Dawley rats weighing 200-225 grams were fasted 24 hours prior to the intraperitoneal administration of the test compounds. The standard screening dosed employed was either 100 or 50 mg/kg. One hour later, the rats were orally administered 25 mg/kg of indomethacin. Both indomethacin and the compounds were suspended in 1% Clearjel ("Instant Clearjel®", a food grade pregelatinized starch from National Starch and Chemical Corporation, New York, N.Y.) or .85% NaCl saline for dosing. Six hours after indomethacin administration, the animals were sacrificed, their stomachs removed, opened along the line of greater curvature, and rinsed with distilled water. The number of macroscopically visible hemmorhagic lesions (dark brown discolorations) in the glandular portion of the stomach was enumerated. […] [table]
`COc1ccc(/C=C/c2ccc3c(=O)n(CCCCN(C)C)ncc3c2)cc1` [Example 9, Trans-6-[2-(4-methoxyphenyl)ethenyl]-2-[4-(dimethylamino)-butyl]phthalazin-1(2H)-one hydrobromide]: the inhibition in vivo at 50 mg/kg was determined as 85%.

For `COc1ccc(/C=C/c2ccc3c(=O)n(CCCN)ncc3c2)cc1` [Example 8, Trans-6-[2-(4-methoxyphenyl)ethenyl]-2-(3-aminopropyl)-phthalazin-1(2H)-one hydrobromide], the inhibition in vivo at 50 mg/kg was found to be 96%.

Take `COc1ccc(/C=C/c2ccc3c(=O)n(CCCN4CCCCC4)ncc3c2)cc1` [Example 2, Trans-6-[2-(4-methoxyphenyl)ethenyl]-2-(3-piperidinopropyl)-phthalazin-1(2H)-one hydrobromide]: the inhibition in vivo at 50 mg/kg was 91%. As for `COc1ccc(/C=C/c2ccc3c(=O)n(CCCN4CCNCC4)ncc3c2)cc1` [Example 5, Trans-6-[2-(4-methoxyphenyl)ethenyl]-2-[3-(1-piperazino)-propyl]phthalazin-1(2H)-one], the inhibition in vivo at 50 mg/kg worked out at 89%. Still for that read-out and setting: then `COc1ccc(/C=C\c2ccc3c(=O)n(CCCN(C)C)ncc3c2)cc1` [Example 10, CIs-6-[2-(4-methoxyphenyl)ethenyl]-2-[3-(dimethylamino)propyl]phthalazin-1(2H)-one cyclohexylsulfamate], with 61%. The same measure, in the same setting: then `CNCCCn1ncc2cc(/C=C/c3ccc(OC)cc3)ccc2c1=O` [Example 7, Trans-6-[2-(4-methoxyphenyl)ethenyl]-2-[3-(methylamino)-propyl]phthalazin-1(2H)-one hydrobromide], with 79%; and `CN(C)CCCn1ncc2cc(/C=C/c3ccccc3)ccc2c1=O` [Example 16, Trans-2-[3-(dimethylamino)propyl]-6-(2-phenylethenyl)-1(2H)-phthalazinone], with 80%. Consider `CN(C)CCCn1ncc2cc(/C=C/c3ccc(O)cc3)ccc2c1=O` [Example 14, Trans-6-[2-(4-hydroxyphenyl)ethenyl]-2-[3-(dimethylamino)-propyl]phthalazin-1(2H)-one hydrochloride], for which the inhibition in vivo at 50 mg/kg was 96.3%.

`COc1ccc(/C=C/c2ccc3c(=O)n(CCN4CCOCC4)ncc3c2)cc1` [Example 4, Trans-6-[2-(4-methoxyphenyl)ethenyl]-2-(2-morpholinoethyl)-phthalazin-1(2H)-one hydrobromide]: the inhibition in vivo at 50 mg/kg came out at 7%.

Regarding `COc1ccc(/C=C/c2ccc3c(=O)n(CCCN(C)C)ncc3c2)cc1` [Example 13, Trans-6-[2-(4-methoxyphenyl)ethenyl]-2-[3-dimethylamino)-propyl]phthalazin-1(2H)-one hydrobromide], the inhibition in vivo at 50 mg/kg turned out to be 99%.

Staying with this assay, now noted: Rattus norvegicus, ip, 6 h; test compound 100 mg/kg intraperitoneal, 1 hour before 25 mg/kg oral indomethacin; lesions counted six hours after indomethacin; versus saline control group; read-out: Percent Inhibition.
Regarding `CN(C)CCn1ncc2cc(/C=C/c3ccc(O)cc3)ccc2c1=O` [Example 15, Trans-6-[2-(4-hydroxyphenyl)ethenyl]-2-[2-(dimethylamino)-ethyl]-1(2H)-phthalazinone hydrochloride], the inhibition in vivo at 100 mg/kg amounted to 7.2%. `COc1ccc(/C=C/c2ccc3c(=O)n(CCN(C)C)ncc3c2)cc1` [Example 3, Trans-6-[2-(4-methoxyphenyl)ethenyl]-2-[2-(dimethylamino)-ethyl]phthalazin-1(2H)-one hydrobromide]: the inhibition in vivo at 100 mg/kg is 65%.

`O=c1c2ccc(/C=C/c3ccccc3)cc2cnn1CCO` [Example 17, Trans-2-(2-hydroxyethyl)-6-(2-phenylethenyl)-1(2H)-phthalazinone]: the inhibition in vivo at 100 mg/kg is 59%. The same measure, in the same setting: then `COc1ccc(/C=C/c2ccc3c(=O)n(CCN(C(C)C)C(C)C)ncc3c2)cc1` [Example 1, Trans-6-[2-(4-methoxyphenyl)ethenyl]-2-[2-(diisopropylamino)-ethyl]phthalazin-1(2H)-one hydrobromide], with 92%; and `COc1ccc(/C=C/c2ccc3c(=O)n(C4CCN(C)CC4)ncc3c2)cc1` [Example 6, Trans-6-[2-(4-methoxyphenyl)ethenyl]-2-(1-methyl-4-piperidinyl)phthalazin-1(2H)-one], with 63%; and `O=c1[nH]ncc2cc(/C=C/c3ccccc3)ccc12` [Example 12, Trans-6-[2-phenylethenyl]phthalazin-1(2H)-one], with 43%. Still for that read-out and setting: the same measure for `O=c1[nH]ncc2cc(/C=C/c3ccc(O)cc3)ccc12` [Example 11, Trans-6-[2-(4-Hydroxyphenyl)ethenyl]-phthalazin-1(2H)-one]: 45%.
